Assay results from patent US20050282814A1, “Vasculostatic agents and methods of use thereof” (TargeGen, Inc., priority 2002, published 2005).
Where a name gives a salt, the structure may show the parent alone.

Experiments:
[1] = biological target: T1, human p120γ subunit of PI3K (Homo sapiens, UniProt P48736); assay: PI3K p120γ enzymatic activity at two concentrations (Upstate Group); assay type: biochemical; settings: 100% = no inhibition, 0% = complete inhibition; for remaining activity at 0.5 µM: read-out: Percent Control Value at 0.5 μM; for remaining activity at 5 µM: read-out: Percent Control Value at 5 μM
T1 construct: Upstate Group, Charlottesville, Va; (ran the assay under contract)
Method: The ability of compounds to inhibit the activity of PI3K kinase was determined using biochemical assays. In a first assay, compounds were tested at two concentrations (0.5 and 5 μM) for their ability to inhibit enzymatic activity of the human p120γ subunit of PI3K (the assay being performed under contract by Upstate Group, Charlottesville, Va.).

[2] = biological target: recombinant phosphatidylinositol 3-kinase-p120γ (PI3K) (Homo sapiens, UniProt P48736); assay: biochemical
[3] = biological target: T2, recombinant human c-Src (Homo sapiens, UniProt P12931); assay: c-Src kinase inhibition, KinaseGlo residual ATP; assay type: biochemical; settings: ATP 3 μM, 90 minutes at room temperature
T2 construct: purchased Panvera, Madison Wis
Source text: (§1) The ability of compounds to inhibit the activity of two Src-family kinases (c-Src and Yes) was directly tested.

[4] = biological target: T3, recombinant human Yes (Homo sapiens, UniProt P07947); assay: Yes kinase inhibition, KinaseGlo residual ATP; assay type: biochemical; settings: ATP 3 μM, 90 minutes at room temperature
T3 construct: purchased Panvera, Madison Wis
Source text: as §1

[5] = system: VEGF-induced edema; assay: Miles assay, VEGF-induced edema; assay type: in vivo, Sprague-Dawley rats; settings: VEGF 200 ng/site, 45 min, vehicle 12
Method: A rodent model of vascular edema, the Miles assay, was used to screen compounds for their ability to inhibit VEGF-induced edema.
Sprague-Dawley rats were first injected IV with vehicle alone or test agent, followed by IV injection of Evans blue dye, followed by intradermal injections of saline and VEGF (200 ng/injection site) along both shaved flanks. After 45 min, intradermal injection sites were photographed and then scored by a blinded observer for extravasation of Evans blue dye into the dermis (dermal bluing) according to a 4 point scoring system (3=maximal bluing, ≧75% of response in vehicle-treated animals; 2=medium bluing, >25% but <75% of vehicle-treated animals; 1=minimal bluing, ≦25% of vehicle-treated animals; 0=bluing equivalent to saline injection sites on same animal). Individual scores for 4 injection sites (from 2 separate animals) were summed and are shown as a scale of 0-12, with a lower score indicating the greater anti-edema activity; note that all vehicle-treated groups score a value of 12, based on the scoring system outlined above.

[6] = system: acute myocardial infarct; assay: Rat acute myocardial infarct model (60 min LAD occlusion, reperfusion); assay type: in vivo, Sprague-Dawley rats; settings: 1.0 mg/kg IV at 90 min post-reperfusion; 24 hr; vs vehicle
Method: A rodent model of acute myocardial infarct, in which the proximal left anterior descending coronary artery (LAD) is occluded for 60 min followed by reperfusion, was used to determine whether test agents reduced infarct size at 24 hours.
Myocardial infarcts were created in Sprague-Dawley rats (200-300 g body weight) by a 60 min occlusion of the LAD followed by LAD reperfusion. At 90 min post-reperfusion, either vehicle alone or test agents were injected IV. At 24 hr post-treatment, the ischemic zone (area at-risk, AAR) was delineated by re-ligation of the LAD followed by IV injection of alkali blue dye, after which hearts were sectioned along the short axis and stained using triphenyltetrazolium chloride to delineate viable from infarcted myocardium. Photographic images were then analyzed using morphometric software to calculate infarct area as a percent of the at-risk area.
The following studies were performed as described above, except that the timing of 3-[2,4-diamino-6-(3-hydroxyphenyl)pteridin-7-yl] phenol dihydrochloride salt administration (at 0.1 mg/kg) was varied. In one group, 3-[2,4-diamino-6-(3-hydroxyphenyl)pteridin-7-yl] phenol dihydrochloride salt was administered at both 60 and 240 min post-occlusion.
In a porcine MI model (90 min of LAD occlusion followed by complete reperfusion), a single 0.3 mg/kg IV bolus delivered 30 min post-reperfusion reduced infarct size by […] vs. controls (40% vs. 56%, N=12-13, P=0.03).

[7] = system: cerebral stroke; assay: Cerebral stroke model, permanent middle cerebral artery occlusion; assay type: in vivo, mice; settings: 1 mg/kg BW IV 60 min after ligation, 24 hours; for % Infarct reduction: vs vehicle
Method: A rodent model of cerebral stroke, in which the middle cerebral artery is permanently occluded, was used to determine whether test agents reduced infarct size at 24 hours.
Cerebral strokes were created in mice by permanent ligation of the middle cerebral artery using a cauterizing tool, followed 60 min later by IV injection of either vehicle alone (50% PEG400 in water) or test agents (at 1 mg/kg BW). Twenty four hours later, brains were sectioned and stained using triphenyltetrazolium chloride to delineate viable from infarcted tissue. Photographic images were then analyzed using morphometric software to calculate infarct area.

T1 sequence (P48736 whole entry): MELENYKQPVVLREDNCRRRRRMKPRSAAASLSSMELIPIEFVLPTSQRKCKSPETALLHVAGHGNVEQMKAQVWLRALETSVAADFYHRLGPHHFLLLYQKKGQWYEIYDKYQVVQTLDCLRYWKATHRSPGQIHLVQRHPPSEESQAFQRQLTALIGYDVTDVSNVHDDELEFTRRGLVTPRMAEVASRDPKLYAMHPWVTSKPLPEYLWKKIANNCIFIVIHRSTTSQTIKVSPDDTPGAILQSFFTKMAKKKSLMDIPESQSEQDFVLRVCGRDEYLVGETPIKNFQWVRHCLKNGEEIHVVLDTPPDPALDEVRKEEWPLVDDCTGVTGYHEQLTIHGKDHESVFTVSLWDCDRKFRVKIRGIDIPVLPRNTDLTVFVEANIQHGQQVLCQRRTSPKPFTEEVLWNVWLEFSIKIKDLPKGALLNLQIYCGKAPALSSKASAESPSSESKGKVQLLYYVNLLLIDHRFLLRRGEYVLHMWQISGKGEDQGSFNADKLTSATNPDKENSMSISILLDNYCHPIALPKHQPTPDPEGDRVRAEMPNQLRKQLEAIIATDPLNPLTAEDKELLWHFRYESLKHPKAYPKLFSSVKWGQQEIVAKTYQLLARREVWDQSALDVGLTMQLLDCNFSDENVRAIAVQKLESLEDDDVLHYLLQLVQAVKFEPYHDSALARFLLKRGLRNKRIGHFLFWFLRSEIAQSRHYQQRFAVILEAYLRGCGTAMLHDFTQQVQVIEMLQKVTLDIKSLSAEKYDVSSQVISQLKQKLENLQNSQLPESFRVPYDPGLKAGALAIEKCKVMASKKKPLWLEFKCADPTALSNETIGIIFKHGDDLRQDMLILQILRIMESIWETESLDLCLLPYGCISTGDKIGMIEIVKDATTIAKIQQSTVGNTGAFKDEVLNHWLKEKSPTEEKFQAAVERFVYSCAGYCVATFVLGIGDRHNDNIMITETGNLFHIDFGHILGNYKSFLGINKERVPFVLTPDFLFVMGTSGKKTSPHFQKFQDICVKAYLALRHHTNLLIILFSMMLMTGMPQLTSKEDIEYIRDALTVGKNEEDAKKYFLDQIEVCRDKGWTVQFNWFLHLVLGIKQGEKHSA
recombinant phosphatidylinositol 3-kinase-p120γ (PI3K), sequence (P48736 whole entry): as above
T3 sequence (P07947 whole entry): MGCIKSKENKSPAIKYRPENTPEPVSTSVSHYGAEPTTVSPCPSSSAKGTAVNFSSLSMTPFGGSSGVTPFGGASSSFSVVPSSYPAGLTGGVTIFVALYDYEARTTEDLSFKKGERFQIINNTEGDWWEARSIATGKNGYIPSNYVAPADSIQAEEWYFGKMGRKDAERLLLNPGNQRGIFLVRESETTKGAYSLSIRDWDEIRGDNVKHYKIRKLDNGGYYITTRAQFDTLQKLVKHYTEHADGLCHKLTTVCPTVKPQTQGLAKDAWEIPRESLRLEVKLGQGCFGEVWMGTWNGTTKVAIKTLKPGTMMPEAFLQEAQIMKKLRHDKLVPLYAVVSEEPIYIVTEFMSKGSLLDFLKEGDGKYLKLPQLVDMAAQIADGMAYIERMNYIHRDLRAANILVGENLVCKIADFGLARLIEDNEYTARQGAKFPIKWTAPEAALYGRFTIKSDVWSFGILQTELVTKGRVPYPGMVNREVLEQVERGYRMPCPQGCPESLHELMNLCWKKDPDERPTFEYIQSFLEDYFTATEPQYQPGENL
T2 sequence (P12931 whole entry): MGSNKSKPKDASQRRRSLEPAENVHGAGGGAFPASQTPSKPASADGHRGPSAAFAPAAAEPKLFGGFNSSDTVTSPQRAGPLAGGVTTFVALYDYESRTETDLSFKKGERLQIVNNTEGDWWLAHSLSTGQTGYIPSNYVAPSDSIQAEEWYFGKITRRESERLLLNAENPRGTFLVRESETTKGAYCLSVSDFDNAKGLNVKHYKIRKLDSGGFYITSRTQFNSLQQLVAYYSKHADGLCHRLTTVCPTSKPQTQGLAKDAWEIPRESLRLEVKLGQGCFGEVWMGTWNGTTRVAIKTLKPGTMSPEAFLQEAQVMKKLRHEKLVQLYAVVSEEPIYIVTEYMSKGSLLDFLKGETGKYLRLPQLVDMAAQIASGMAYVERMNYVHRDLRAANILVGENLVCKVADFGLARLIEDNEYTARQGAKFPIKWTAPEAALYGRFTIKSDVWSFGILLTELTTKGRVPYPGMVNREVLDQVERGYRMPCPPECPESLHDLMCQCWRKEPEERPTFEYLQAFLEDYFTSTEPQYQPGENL

Nc1nc(N)c2nc(-c3ccc(O)c(O)c3)c(-c3ccc(O)c(O)c3)nc2n1 [6,7-bis(3,4-dihydroxyphenyl)-pteridine-2,4-diamine]
remaining activity at 0.5 µM [1]: 66% | remaining activity at 5 µM [1]: 12% | IC50 [2]: 273 nM

Nc1ncnc2nc(-c3cccc(O)c3)c(-c3cccc(O)c3)nc12 [6,7-Bis(3-hydroxyphenyl)-pteridine-4-ylamine hydrobromide salt]
IC50 [3]: 8800 nM

Nc1ccc2nc(-c3ccc(O)c(O)c3)c(-c3ccc(O)c(O)c3)nc2n1 [compound C, 2,3-Bis(3,4-dihydroxyphenyl)-pyrido[2,3-b]pyrazin-6-ylamine dihydrochloride salt]
IC50 [3]: 1300 nM | IC50 [4]: 756 nM

Nc1nc(N)c2nc(-c3ccc(O)cc3)c(-c3ccc(O)cc3)nc2n1 [6,7-Bis(4-hydroxyphenyl)-pteridine-2,4-diamine]
remaining activity at 0.5 µM [1]: 94% | remaining activity at 5 µM [1]: 46%

Nc1nc(N)c2nc(CNCc3ccc4ccccc4c3)cnc2n1 [6-{[(Naphthalen-2-ylmethyl)-amino]-methyl-pteridine-2,4-diamine]
Score (scale of 0-12) ([5]; 0.1 mg/kg IV): 4

Oc1ccc(CNc2ncnc3ncc(-c4ccccc4)nc23)cc1O
IC50 [3]: 420 nM

Nc1nnc2cc(-c3cccc4ccccc34)ccc2n1 [7-Naphthalen-1-yl-benzo[1,2,4]triazin-3-ylamine]
IC50 [3]: 900 nM | IC50 [4]: 9300 nM

Nc1nc(N)c2nc(-c3ccc(O)c(O)c3)c(-c3ccc(O)c(O)c3)nc2n1 [6,7-bis(3,4-dihydroxyphenyl)-pteridine-2,4-diamine dihydrochloride salt]
IC50 [3]: 2600 nM | IC50 [4]: 1100 nM

O=C(Nc1ccccc1-c1cc2ccccc2[nH]1)c1cccnc1C(=O)O [3-[2-(1H-Indol-2-yl)-phenyicarbamoyl]-pyridine-2-carboxylic acid]
Score (scale of 0-12) ([5]; 0.5 mg/kg IV): 5

O=C(Nc1ccccc1-c1cc2ccccc2[nH]1)c1ccc(O)c(O)c1 [3,4-Dihydroxy-N-(2-(1H-indol-2-yl)-phenyl)-benzamide]
IC50 [3]: 337 nM | IC50 [4]: 303 nM

Nc1cncc2nc(-c3cccc(O)c3)c(-c3cccc(O)c3)nc12 [2,3-Bis(3-hydroxyphenyl)-pyrido[3,4-b]pyrazin-8-ylamine hydrochloride salt]
remaining activity at 0.5 µM [1]: 101% | remaining activity at 5 µM [1]: 90%

Nc1ncnc2nc(-c3cccc(O)c3)c(-c3cccc(O)c3)nc12 [6,7-bis(3-hydroxyphenyl)-pteridin-4-ylamine hydrochloride salt]
IC50 [3]: 10000 nM | IC50 [4]: 6300 nM

Nc1nnc2cc(-c3ccccc3C(F)(F)F)ccc2n1 [7-(2-Trifluoromethyl-phenyl)-benzo[1,2,4]triazin-3-ylamine]
IC50 [3]: 9200 nM | IC50 [4]: 7000 nM

Nc1ncnc2nc(-c3ccc(O)c(O)c3)c(-c3ccc(O)c(O)c3)nc12 [4-[4-amino-6-(3,4-dihydroxyphenyl)pteridin-7-yl]benzene-1,2-diol]
IC50 [2]: 968 nM

Oc1ccc(CCNc2ncnc3ncc(-c4ccccc4)nc23)cc1O [4-[2-(6-Phenyl-pteridin-4-ylamino)-ethyl]benzene-1,2-diol]
IC50 [3]: 317 nM

Nc1ncnc2nc(-c3ccc(O)c(O)c3)c(-c3ccc(O)c(O)c3)nc12 [4-[4-amino-6-(3,4-dihydroxyphenyl)pteridin-7-yl]benzene-1,2-diol methanesulfonate salt]
IC50 [3]: 800 nM

Cc1cccc(C)c1-c1cc(C)c2nc(Nc3ccccc3)nnc2c1 [[7-(2,6-Dimethyl-phenyl)-5-methyl-benzo[1,2,4]triazin-3-yl]-phenyl-amine]
IC50 [3]: 294 nM

Nc1cncc2nc(-c3ccc(O)cc3)c(-c3ccc(O)cc3)nc12 [2,3-Bis(4-hydroxyphenyl)-pyrido[3,4-b]pyrazin-8-ylamine]
remaining activity at 0.5 µM [1]: 101% | remaining activity at 5 µM [1]: 94%

Cl.Cl.Nc1nc(N)c2nc(-c3cccc(O)c3)c(-c3cccc(O)c3)nc2n1
% Infarct reduction [6]: Not significant

Nc1cncc2nc(-c3ccc(O)c(O)c3)c(-c3ccc(O)c(O)c3)nc12 [2,3-Bis(3,4-dihydroxyphenyl)-pyrido[3,4-b]pyrazin-8-ylamine hydrochloride salt]
IC50 [3]: 1600 nM | IC50 [4]: 1000 nM

Oc1nc(O)c2nc(-c3ccc(O)c(O)c3)c(-c3ccc(O)c(O)c3)nc2n1 [6,7-bis(3,4-dihydroxyphenyl)pteridine-2,4-diol]
IC50 [3]: 1800 nM | IC50 [4]: 900 nM

CN(C)S(=O)(=O)c1ccc2c(c1)/C(=C/c1cc3c([nH]1)CCCC3)C(=O)N2 [SU6656, reference compound]
% Infarct reduction [7]: Not significant

Nc1nnc2cc(-c3cccc(O)c3)ccc2n1 [3-(3-Amino-benzo[1,2,4]triazin-7-yl)-phenol]
IC50 [3]: 12000 nM | IC50 [4]: 6800 nM

Nc1ncnc2nc(-c3cccc(O)c3)c(-c3cccc(O)c3)nc12 [6,7-bis(3-hydroxyphenyl)-pteridin-4-ylamine]
remaining activity at 0.5 µM [1]: 97% | remaining activity at 5 µM [1]: 71% | IC50 [2]: 3900 nM

Nc1nc(N)c2nc(-c3ccccc3)c(-c3ccccc3)nc2n1 [compound B, 6,7-diphenyl-pteridine-2,4-diamine]
remaining activity at 0.5 µM [1]: 101% | remaining activity at 5 µM [1]: 81%

Cc1ccc(-c2nn(C(C)(C)C)c3ncnc(N)c23)cc1 [PP1, reference compound]
Infarct area in mm^3 (mean ± SEM) [7]: 35.4 ± 6.4 mm^3 | % Infarct reduction [7]: Not significant

Nc1ncc2nc(-c3cccc(O)c3)c(-c3cccc(O)c3)nc2n1 [6,7-bis(3-hydroxyphenyl)-pteridine-2-amine]
IC50 [3]: 27600 nM | IC50 [4]: 3800 nM

Cl.Nc1ncnc2nc(-c3ccc(O)c(O)c3)c(-c3ccc(O)c(O)c3)nc12 [4-[4-amino-6-(3,4-dihydroxyphenyl)pteridin-7-yl]benzene-1,2-diol hydrochloride salt]
IC50 [3]: 1300 nM | Score (scale of 0-12) ([5]; 0.01 mg/kg IV): 6 | Score (scale of 0-12) ([5]; 0.1 mg/kg IV): 3 | Score (scale of 0-12) ([5]; 1 mg/kg IV): 5

Nc1nc(O)c2nc(-c3cccc(O)c3)c(-c3cccc(O)c3)nc2n1 [2-Amino-6,7-bis-(3-hydroxy-phenyl)-pteridin-4-ol]
remaining activity at 0.5 µM [1]: 102% | remaining activity at 5 µM [1]: 99% | IC50 [2]: 48000 nM

Nc1ncnc2nc(-c3ccccn3)c(-c3ccccn3)nc12 [6,7-Di-pyridin-2-yl-pteridin-4-ylamine]
% Infarct reduction [7]: Not significant

Nc1ncnc2nc(-c3ccc(O)cc3)c(-c3ccc(O)cc3)nc12 [6,7-bis(4-hydroxyphenyl)-pteridin-4-ylamine]
remaining activity at 0.5 µM [1]: 102% | remaining activity at 5 µM [1]: 85%
